# From patent publication US20230365530A1, “QUINAZOLINE-2,4-DIAMINE DERIVATIVE AND PHARMACEUTICAL COMPOSITION FOR PREVENTING OR TREATING CANCER COMPRISING SAME AS ACTIVE INGREDIENT” (THE ASEAN FOUNDATION, priority 2020, published 2023)
# Molecular target: EHMT2 (Euchromatic histone-lysine N-methyltransferase 2) (Homo sapiens (Human), UniProt Q96KQ7)
# Assay: EHMT2 enzyme inhibition, LANCE TR-FRET
# Assay type: biochemical
# Conditions: histone H3 peptide, 1 hour at room temperature
# Method: In order to analyze the enzyme inhibitory efficacy of the compounds of Examples 1 to 89, EHMT2 (Euchromatic histone-lysine N-methyltransferase 2) enzyme activity was measured using the LANCE TR-FRET™ analysis method of Perkin Elmer. When the EHMT2 enzyme is activated, the 9th lysine residue of the biotinylated-histone peptide is methylated and the EU-conjugated antibody is combined to the methylated histone peptide. Then, when the complex is irradiated with light of excitation wavelength, the complex emits light having a wavelength of 665 nm through FRET phenomenon. Accordingly, fluorescence was measured, and IC50 values were calculated through a software to evaluate the EHMT2 enzyme activity inhibitory effect of the compounds of Examples 1 to 89.
# Specific experimental methods are as follows. First, the compounds of Examples 1 to 89 of 1 nM to 100 μM (4× conc.) were put into a 384 well plate (25 μL/well), and 2 μM EEMT2/G9a enzyme (4× conc.) was put into the 384 well plate (25 μL/well). The plate was then centrifuged at 1,500 rpm for 5 seconds after sealing the plate with plate sealing foil. After incubating the EHMT2/G9a enzyme, SAM, and the compounds of Examples above at room temperature for 10 minutes, 2 μM histone H3 peptide (4× conc.) was added to the 384-well plate (25 μL/well). After sealing the plate with plate sealing foil and centrifuging at 1,500 rpm for 5 seconds, an enzymatic reaction was performed at room temperature for 1 hour. Upon completion of the enzyme reaction, 5 μL each of 200 nM Ulight™-Streptavidin (4× conc.) and 8 nM Eu-antibody (4× conc.) was added to each well of the plate. The plate was sealed with plate sealing foil, centrifuged at 1,500 rpm for 5 seconds and reacted at room temperature for 1 hour. The signal values were measured with Envision (Ex 320 nm, Em 665 nm), and all background values obtained by reacting without enzyme were deleted from the measured raw data values. Then, the EHMT2 enzyme activity inhibitory effect of the compounds of Examples 1 to 89 was converted into % values, and compared with the EHMT2 activity when treated with 4% DMSO vehicle (=0 nM compound) as 100%.
# Sequence of EHMT2 (Euchromatic histone-lysine N-methyltransferase 2) (Q96KQ7 whole entry): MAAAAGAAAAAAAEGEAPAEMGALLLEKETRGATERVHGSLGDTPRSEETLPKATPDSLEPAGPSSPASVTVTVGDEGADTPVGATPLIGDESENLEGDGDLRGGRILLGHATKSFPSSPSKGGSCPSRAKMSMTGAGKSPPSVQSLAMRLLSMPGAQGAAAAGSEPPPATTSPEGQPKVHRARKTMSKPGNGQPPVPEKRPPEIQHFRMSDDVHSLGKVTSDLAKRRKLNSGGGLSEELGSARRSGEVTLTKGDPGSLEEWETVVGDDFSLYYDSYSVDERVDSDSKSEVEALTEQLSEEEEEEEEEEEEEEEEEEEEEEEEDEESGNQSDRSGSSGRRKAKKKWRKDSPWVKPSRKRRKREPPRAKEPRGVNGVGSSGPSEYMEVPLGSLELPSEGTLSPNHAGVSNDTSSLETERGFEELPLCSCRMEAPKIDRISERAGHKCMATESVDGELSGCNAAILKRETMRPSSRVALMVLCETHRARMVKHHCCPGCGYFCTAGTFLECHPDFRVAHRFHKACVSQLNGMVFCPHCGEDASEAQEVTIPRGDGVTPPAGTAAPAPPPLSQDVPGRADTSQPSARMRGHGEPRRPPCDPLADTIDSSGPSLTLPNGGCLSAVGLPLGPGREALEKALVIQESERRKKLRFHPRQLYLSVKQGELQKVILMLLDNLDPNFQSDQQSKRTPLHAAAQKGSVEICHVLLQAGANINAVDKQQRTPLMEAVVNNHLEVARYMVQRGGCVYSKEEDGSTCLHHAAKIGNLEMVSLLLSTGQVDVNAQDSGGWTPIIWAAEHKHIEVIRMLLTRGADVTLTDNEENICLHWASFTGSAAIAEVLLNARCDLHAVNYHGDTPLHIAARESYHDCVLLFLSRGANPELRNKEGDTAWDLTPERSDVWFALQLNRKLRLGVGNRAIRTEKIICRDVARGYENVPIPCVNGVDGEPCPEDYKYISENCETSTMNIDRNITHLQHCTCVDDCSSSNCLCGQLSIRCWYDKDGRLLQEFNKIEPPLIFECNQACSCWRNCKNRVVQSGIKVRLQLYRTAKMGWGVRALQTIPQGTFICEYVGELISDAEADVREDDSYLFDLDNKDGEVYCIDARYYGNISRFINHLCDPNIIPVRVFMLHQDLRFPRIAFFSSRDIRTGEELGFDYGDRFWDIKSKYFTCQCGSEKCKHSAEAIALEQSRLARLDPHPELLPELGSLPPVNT
row,Compound,IC50
1,"COc1cc2c(NCc3ccncc3)nc(N3CCCCC3)nc2cc1C#CCCN(C)C [Example 32, 7-(4-(dimethylamino)-1-butyne-1-yl)-6-methoxy-2-(piperidine-1-yl)-N-(pyridine-4-ylmethyl)quinazoline-4-amine]",10000 to 100000 nM
2,"COc1cc2c(NC3CCN(C(C)C)CC3)nc(N3CCCCC3)nc2cc1C#CCCN1CC(F)C1 [Example 33, 7-(4-(3-fluoroazetidine-1-yl)-1-butyne-1-yl)-N-(1-isopropylpiperidine-4-yl)-6-methoxy-2-(piperidine-1-yl)quinazoline-4-amine]",10000 to 100000 nM
3,COc1cc2c(NCCc3ccncc3)nc(N3CCCCC3)nc2cc1C#CCCN(C)C [Example 34],10000 to 100000 nM
4,"COc1cc2c(NC3CCN(C(C)C)CC3)nc(N3CCC(F)(F)CC3)nc2cc1C#CCCN1CCCC1 [Example 35, 2-(4,4-difluoropiperidine-1-yl)-N-(1-isopropylpiperidine-4-yl)-6-methoxy-7-(4-(pyrrolidine-1-yl)-1-butyne-1-yl)quinazoline-4-amine]",1000 to 10000 nM
5,COc1cc2c(NC3CCN(C(C)C)CC3)nc(N3CCCCCC3)nc2cc1C#CCCN1CCCC1 [Example 36],< 100 nM
6,"COc1cc2c(NC3CCN(C(C)C)CC3)nc(N3CCCCCC3)nc2cc1C#CCCN1CCCCC1 [Example 37, 2-(azepane-1-yl)-N-(1-isopropylpiperidine-4-yl)-6-methoxy-7-(4-(piperidine-1-yl)-1-butyne-1-yl)quinazoline-4-amine]",100 to 1000 nM
7,"COc1cc2c(NC3CCN(C(C)C)CC3)nc(N3CCN(C)CC3)nc2cc1C#CCCN1CCCC1 [Example 38, N-(1-isopropylpiperidine-4-yl)-6-methoxy-2-(4-methylpiperazine-1-yl)-7-(4-(pyrrolidine-1-yl)-1-butyne-1-yl)quinazoline-4-amine]",100 to 1000 nM
8,"COc1cc2c(NC3CCN(C(C)C)CC3)nc(N3CCN(C)CC3)nc2cc1C#CCCN1CCCCC1 [Example 39, N-(1-Disopropylpiperidine-4-yl)-6-methoxy-2-(4-methylpiperazine-1-yl)-7-(4-(piperidine-1-yl)-1-butyne-1-yl)quinazoline-4-amine]",1000 to 10000 nM
9,"COc1cc2c(NC3CCN(C(C)C)CC3)nc(N3CCC4(CCCC4)C3)nc2cc1C#CCCN1CCCC1 [Example 40, N-(1-isopropylpiperidine-4-yl)-6-methoxy-7-(4-(pyrrolidine-1-yl)-1-butyne-1-yl)-2-(2-azaspiro[4.4]nonane-2-yl)quinazoline-4-amine]",100 to 1000 nM
10,"COc1cc2c(NC3CCN(C(C)C)CC3)nc(N3CCC4(CCCC4)C3)nc2cc1C#CCCN1CCCCC1 [Example 41, N-(1-isopropylpiperidine-4-yl)-6-methoxy-7-(4-(piperidine-1-yl)-1-butyne-1-yl)-2-(2-azaspiro[4.4]nonane-2-yl)quinazoline-4-amine]",1000 to 10000 nM
11,"COc1cc2c(NC3CCN(C(C)C)CC3)nc(N3CCCC3)nc2cc1C#CCCN1CCCCC1 [Example 43, N-(1-isopropylpiperidine-4-yl)-6-methoxy-7-(4-(piperidine-1-yl)-1-butyne-1-yl)-2-(pyrrolidine-1-yl)quinazoline-4-amine]",< 100 nM
12,"COc1cc2c(NC3CCN(C(C)C)CC3)nc(N(C)C)nc2cc1C#CCCN1CCCCC1 [Example 44, N-(1-isopropylpiperidine-4-yl)-6-methoxy-N2,N2-dimethyl-7-(4-(piperidine-1-yl)-1-butyne-1-yl)quinazoline-2,4-diamine]",< 100 nM
13,"COc1cc2c(NC3CCN(C(C)C)CC3)nc(N3CCCN(C)CC3)nc2cc1C#CCCN1CCCCC1 [Example 45, N-(1-isopropylpiperidine-4-yl)-6-methoxy-2-(4-methyl1,4-diazepane-1-yl)-7-(4-(piperidine-1-yl)-1-butyne-1-yl)quinazoline-4-amine]",< 100 nM
14,"COc1cc2c(NC3CCN(C(C)C)CC3)nc(N3C[C@@H]4C[C@@H]4[C@@H]3CO)nc2cc1C#CCCN1CCCC1 [Example 46, ((1S,2R,5R)-3-(4-((1-isopropylpiperidine-4-yl)amino)-6-methoxy-7-(4-(pyrrolidine-1-yl)-1-butyne-1-yl)quinazoline-2-yl)-3-azabicyclo[3.1.0]hexane-2-yl)methanol]",< 100 nM
15,"COc1cc2c(NC3CCN(C(C)C)CC3)nc(N3C[C@@H]4C[C@@H]4[C@@H]3CO)nc2cc1C#CCCN1CCCCC1 [Example 47, ((1S,2R,5R)-3-(4-((1-isopropylpiperidine-4-yl)amino)-6-methoxy-7-(4-(piperidine-1-yl)-1-butyne-1-yl)quinazoline-2-yl)-3-azabicyclo[3.1.0]hexane-2-yl)methanol]",< 100 nM
16,"COc1cc2c(NC3CCN(C(C)C)CC3)nc(N3CCCN(C)CC3)nc2cc1C#CCCN1CCCC1 [Example 48, N-(1-isopropylpiperidine-4-yl)-6-methoxy-2-(4-methyl-1,4-diazepane-1-yl)-7-(4-(pyrrolidine-1-yl)-1-butyne-1-yl)quinazoline-4-amine]",< 100 nM
17,"CCN1CCC(Nc2nc(N3CCCCC3)nc3cc(C#CCCN(C)C)c(OC)cc23)CC1 [Example 50, 7-(4-(dimethylamino)-1-butyne-1-yl)-N-(1-ethylpiperidine-4-yl)-6-methoxy-2-(piperidine-1-yl)quinazoline-4-amine]",< 100 nM
18,"CCN1CCC(Nc2nc(N3CCCCC3)nc3cc(C#CCCN4CCCC4)c(OC)cc23)CC1 [Example 51, N-(1-ethylpiperidine-4-yl)-6-methoxy-2-(piperidine-1-yl)-7-(4-(pyrrolidine-1-yl)-1-butyne-1-yl)quinazoline-4-amine]",< 100 nM
19,"COc1cc2c(NC3CCN(C4CC4)CC3)nc(N3CCCCC3)nc2cc1C#CCCN1CCCC1 [Example 53, N-(1-cyclopropylpiperidine-4-yl)-6-methoxy-2-(piperidine-1-yl)-7-(4-(pyrrolidine-1-yl)-1-butyne-1-yl)quinazoline-4-amine]",< 100 nM
20,"COc1cc2c(NC3CCN(C4CC4)CC3)nc(N3CCCC3)nc2cc1C#CCCN1CCCC1 [Example 54, N-(1-cyclopropylpiperidine-4-yl)-6-methoxy-2-(pyrrolidine-1-yl)-7-(4-(pyrrolidine-1-yl)-1-butyne-1-yl)quinazoline-4-amine]",< 100 nM
21,"COc1cc2c(NC3CCN(C(C)C)CC3)nc(N3CC[C@H](F)C3)nc2cc1C#CCCN1CCCC1 [Example 57, (S)-2-(3-fluoropyrrolidine-1-yl)-N-(1-isopropylpiperidine-4-yl)-6-methoxy-7-(4-(pyrrolidine-1-yl)-1-butyne-1-yl)quinazoline-4-amine]",< 100 nM
22,"COc1cc2c(NC3CCN(C(C)C)CC3)nc(N3CC(F)C3)nc2cc1C#CCCN1CCCC1 [Example 59, 2-(3-fluoroazetidine-1-yl)-N-(1-isopropylpiperidine-4-yl)-6-methoxy-7-(4-(pyrrolidine-1-yl)-1-butyne-1-yl)quinazoline-4-amine]",< 100 nM
23,"COc1cc2c(NCCN(C)C)nc(N(C)C)nc2cc1C#CCCN1CCCC1 [Example 61, N4-(2-(dimethylamino)ethyl)-6-methoxy-N2,N2-dimethyl-7-(4-(pyrrolidine-1-yl)-1-butyne-1-yl)quinazoline-2,4-diamine]",< 100 nM
24,"COc1cc2c(NCCN(C)C)nc(N3CCCN(C)CC3)nc2cc1C#CCCN1CCCC1 [Example 62, N1-(6-methoxy-2-(4-methyl-1,4-diazepane-1-yl)-7-(4-(pyrrolidine-1-yl)-1-butyne-1-yl)quinazoline-4-yl)-N2,N2-dimethylethane-1,2-diamine]",< 100 nM
25,"CCN1CCC(Nc2nc(N(C)C)nc3cc(C#CCCN4CCCC4)c(OC)cc23)CC1 [Example 63, N4-(1-ethylpiperidine-4-yl)-6-methoxy-N2,N2-dimethyl-7-(4-(-pyrrolidine-1-yl)-1-butyne-1-yl)quinazoline-2,4-diamine]",< 100 nM
26,"CCN1CCC(Nc2nc(N3CCCC3)nc3cc(C#CCCN4CCCC4)c(OC)cc23)CC1 [Example 64, N-(1-ethylpiperidine-4-yl)-6-methoxy-2-(pyrrolidine-1-yl)-7-(4-(pyrrolidine-1-yl)-1-butyne-1-yl)quinazoline-4-amine]",< 100 nM
27,"CCN1CCC(Nc2nc(N3CCCN(C)CC3)nc3cc(C#CCCN4CCCC4)c(OC)cc23)CC1 [Example 65, N-(1-ethylpiperidine-4-yl)-6-methoxy-2-(4-methyl-1,4-diazepane-1-yl)-7-(4-(pyrrolidine-1-yl)-1-butyne-1-yl) quinazoline-4-amine]",< 100 nM
28,"COc1cc2c(NC3CCN(C(C)C)CC3)nc(N3CCCCC3)nc2cc1/C=C/CCN1CCCCC1 [Example 66, (E)-N-(1-isopropylpiperidine-4-yl)-6-methoxy-2-(piperidine-1-yl)-7-(4-(piperidine-1-yl)-1-butene-1-yl)quinazoline-4-amine]",< 100 nM
